Results reported in patent US20240300934A1, “COMPOUNDS FOR MODULATING MYCOBACTERIUM TUBERCULOSIS RESPONSE” (priority 2021, published 2024).

Assays:
[1] = test system: rv2390c′::GFP reporter Mtb strain; format: cell-based, Mycobacterium tuberculosis; conditions: for rv2390c′::GFP reporter signal upon Mtb exposure to high [Cl−] (in words): 10 μM, 250 mM NaCl; for rv2390c′::GFP Cl− response phenotype: compared to C6
Mtb in J774 cells = assay: Mtb growth in J774 macrophage-like cells (mKO fluorescence); format: cell-based, Mycobacterium tuberculosis; conditions: for Mtb growth in J774 cells (in words): 10 μM, 6 days post-infection; for Inhibition of Mtb growth in J774 cells phenotype: compared to C6
Protocol: For the tertiary screen of selected hit compounds in J774 murine macrophage-like cells, 30,000 J774 cells/well were seeded in bar-coded 384-well black, clear bottom plates in a 30 μl volume in J774 infection media (DMEM+10% FBS+1 mM sodium pyruvate+2 mM L-glutamine) using a ThermoFisher Multidrop Combi reagent dispenser, one day prior to assay start. On the day of the assay, log-phase Mtb constitutively expressing mKO were pelleted and resuspended in 1 ml basal uptake buffer (0.5% bovine serum albumin+25 mM dextrose+0.5 mM MgCl2+1 mM CaCl2+0.1% gelatin in phosphate buffered saline (PBS), passed 6× though a tuberculin syringe with a 25 G×5/8″ needle, then resuspended in J774 infection media to a final OD600=0.2. 10 μl of this bacterial suspension was added to each well of the 384-well plates containing the J774 cells, followed by addition of 10 μl of the appropriate compounds (pre-aliquoted in v-bottom plates in a 1:1 mix of PBS:J774 infection media). Addition of Mtb and compounds were conducted using a Janus Ministation. For each test plate, two columns of controls (16 wells each) were included, with one column consisting of treatment with DMSO as a carrier control (negative control), and the other column consisting of treatment with 5 μM rifampicin (positive control). This tertiary assay was done as a dose-response assay in duplicate runs, with compounds tested beginning at a final concentration of 20 μM and two-fold dilutions down to 0.039 μM. Plates were kept in humidified ziplock bags in a 37° C., 5% CO2 incubator. 6 days post-infection, mKO fluorescence signal was read using a PerkinElmer EnVision multimode plate reader (bottom read filter, excitation 530/8 nm, Bodipy TMR D555 single mirror, emission 579/25 nm). mKO fluorescence in DMSO-treated control samples were defined as 100% growth, and fluorescence observed in treatment conditions calculated as a percentage from that set value.
For J774 infection in 96-well plates, 180,000 J774 cells were seeded per well in 180 μl of J774 infection media one day prior to infection. On the day of the assay, log-phase Mtb constitutively expressing mKO were pelleted and resuspended in 1 ml basal uptake buffer, passed 6× though a tuberculin syringe with a 25 G×5/8″ needle, then resuspended in J774 infection media to a final OD600=0.2. Media was removed from 96-well plate containing the J774 cells, with 140 μl of fresh J774 infection media added back to each well. 40 μl of the Mtb suspension at OD600=0.2 was added to each well, followed by addition of appropriate concentration of compound or DMSO in a 20 μl final volume in J774 infection media (compound final concentration 10 μM, rifampicin final concentration 5 μM, DMSO final concentration 0.1%/well). Bacterial mKO fluorescence was read immediately after infection using a Biotek Synergy Neo2 microplate reader (bottom read monochromator, excitation 543/10 nm, emission 565/10 nm), and again 6 days post-infection. Plates were kept in humidified ziplock bags in a 37° C., 5% CO2 incubator. mKO fluorescence in DMSO-treated control samples were defined as 100% growth, and fluorescence observed in treatment conditions calculated as a percentage from that set value.

[2] = test system: Mtb in bone marrow-derived macrophages (BMDMs); assay: Mtb growth in primary murine bone marrow-derived macrophages (CFU); format: cell-based, Mycobacterium tuberculosis; conditions: 10 μM; added 2 hrs post-infection; eight-day time-course
Protocol: C57BL/6J wild type mice (Jackson Laboratories) were used for extraction of bone marrow-derived macrophages. Cells were harvested and expanded in DMEM containing 10% FBS, 15% L-cell conditioned media, 2 mM L-glutamine, 1 mM sodium pyruvate, and penicillin/streptomycin as needed in a 37° C. incubator in a 5% CO2 atmosphere. […] Macrophages were lysed with water containing 0.01% sodium dodecyl sulfate and a dilution series of the samples plated on 7H10 agar for CFU determination.

Mtb [3] = assay: Mtb growth assay in cholesterol media (OD600); format: cell-based, Mycobacterium tuberculosis; conditions: for Mtb growth in cholesterol media (in words): 10 μM, OD600; for Growth inhibition in cholesterol media phenotype: compared to C6
Mtb [4] = assay: Intrabacterial drug accumulation assay; conditions: 24 h exposure; 7H9 pH 7 ± 250 mM NaCl
J774 cells = assay: Intracellular drug accumulation assay in J774 cells; conditions: 24 h exposure; uninfected J774 cells
Mtb-infected J774 cells = conditions: 10 μM for 24 h; 5 days post-infection
Mtb [5] = conditions: mice that do not form caseous necrotic lesions; cited from earlier work
Mtb [6] = conditions: subset of mice failing to respond; cited from earlier work

## COc1ncc(CN2CCN(c3nc4ccccc4o3)CC2)cn1 [JSF-4271, 2-(4-((2-methoxypyrimidin-5-yl)methyl)piperazin-1-yl)benzo[d]oxazole]
[1]
  rv2390c′::GFP reporter signal upon Mtb exposure to high [Cl−] (in words): lost the ability
  rv2390c′::GFP Cl− response phenotype: N
Mtb in J774 cells
  Mtb growth in J774 cells (in words): loss of the ability to inhibit Mtb growth
  Inhibition of Mtb growth in J774 cells phenotype: N
[2]
  Mtb bacterial load / growth in primary murine BMDM (in words): loss of the ability to inhibit Mtb growth
Mtb [3]
  Mtb growth in cholesterol media (in words): no longer inhibited Mtb growth in cholesterol media
  Growth inhibition in cholesterol media phenotype: N
Mtb [4]
  intrabacterial accumulation in Mtb: decreased accumulation
J774 cells
  intracellular accumulation in J774 cells: minimal accumulation
Mtb-infected J774 cells
  accumulation in Mtb-infected J774 cells: minimal accumulation

## CCSc1ccc(CN2CCN(c3nc4ccccc4o3)CC2)cc1 [JSF-4300, 2-(4-(4-(ethylthio)benzyl)piperazin-1-yl)benzo[d]oxazole]
[1]
  rv2390c′::GFP reporter signal upon Mtb exposure to high [Cl−] (in words): continuing to demonstrate the phenotypes seen with the parental C6 compound
  rv2390c′::GFP Cl− response phenotype: Y
Mtb in J774 cells
  Mtb growth in J774 cells (in words): continuing to demonstrate the phenotypes seen with the parental C6 compound
  Inhibition of Mtb growth in J774 cells phenotype: Y
Mtb [3]
  Mtb growth in cholesterol media (in words): continuing to demonstrate the phenotypes seen with the parental C6 compound
  Growth inhibition in cholesterol media phenotype: Y
Mtb [4]
  intrabacterial accumulation in Mtb: robust accumulation
J774 cells
  intracellular accumulation in J774 cells: robust accumulation
Mtb-infected J774 cells
  accumulation in Mtb-infected J774 cells: robust accumulation

## COc1nc2ccc(Br)cc2cc1[C@@H](c1ccccc1)[C@@](O)(CCN(C)C)c1cccc2ccccc12 [bedaquiline]
Mtb [5]
  efficacy in BALB/c mice: uniform efficacy across animals
Mtb [6]
  response in C3HeB/FeJ mice: heterogeneous response

## NC(=O)c1cnccn1 [pyrazinamide]
Mtb [5]
  efficacy in BALB/c mice: uniform efficacy across animals
Mtb [6]
  response in C3HeB/FeJ mice: heterogeneous response
